The values below come from US10507207B2, “Non-nucleosidic inhibitors of reverse transcriptase as antagonists of cell proliferation and inducers of cell differentiation” (ISTITUTO SUPERIORE DI SANITA, priority 2001, dated 2019).

Assay [1] deals with HL60 cells. The experiment in a line: NBT dye reduction assay. The assay is classed as cell-based, human. Particulars: HL60, RA 1 μM, 4 days.
Assay [2] deals with NB4 cells. Description: Cytofluorimetric analysis of cell surface markers. It counts as cell-based, human. Particulars: NB4, RA 1 μM, 4 days. The text has this: (§1) The induction of CD11b is associated with granulocytic differentiation, CD14 is considered a monocytic specific antigen and CD15 is a myelomonocytic antigen. Simultaneous induction of CD14 and CD11b relates to monocytic differentiation. […] In nevirapine-treated NB4 and HL60 cells, a strong induction of expression of CD15, and, to a lesser degree, CD11b and CD14 markers was detected.

Assay [3] has as its system HL60 cells. The experiment in a line: Cytofluorimetric analysis of cell surface markers. The assay is classed as cell-based, human. The settings on record: HL60, RA 1 μM, 4 days.
From the text: as §1

For assay [4], the system named is NB4 cells. The experiment in a line: NBT dye reduction assay. It counts as cell-based, human. The settings on record: NB4, RA 1 μM, 4 days.
For assay [5], the system named is NB4 cells. The experiment in a line: Growth, viable cell count. The assay is classed as cell-based, human. Particulars: NB4, RA 1 μM, 4 days.
For assay [6], the system named is HL60 cells. Description: Growth, viable cell count. The assay is classed as cell-based, human. Particulars: HL60, RA 1 μM, 4 days.
The test system of the next assay is F9 teratocarcinoma cells. Description: Cell proliferation by cell counting. It counts as cell-based, murine. The settings on record: efavirenz 10 and 20 μM, dose-dependent, vs non-exposed cells. The method, then: (§2) NIH/3T3 embryo fibroblasts and F9 teratocarcinoma cells were cultured in DMEM containing 10-20% fetal serum and two concentrations of efavirenz, i.e. 10 and 20 μM, diluted from a stock solution (10 mM) in 100% DMSO. Cells were plated at a density of 2-5×10^4 in 35 mm Petri dishes and exposed to efavirenz 5-6 hours later. Samples were withdrawn at specific times and cells were counted in efavirenz-exposed compared to parallel non-exposed cell cultures.

Assay [7] has as its system NIH/3T3 embryo fibroblasts. The experiment in a line: Cell proliferation by cell counting. It counts as cell-based, murine. Particulars: efavirenz 10 and 20 μM, dose-dependent, vs non-exposed cells. The procedure: as §2
In assay [8] the test system is HeLa adenocarcinoma cells. Description: Cell proliferation by cell counting. It counts as cell-based, human. Particulars: 20 μM efavirenz. The method, then: (§3) The effect of efavirenz was further tested in human HeLa adenocarcinoma and Saos-2 osteosarcoma cells. Both cell lines were cultured in the conditions described above (Example 6). To establish if prolonged exposure to the drug improved the effectiveness of growth inhibition, both cell lines were exposed to efavirenz in two subsequent cycles: during the 1st cycle cells were continuously exposed to 20 μM efavirenz for 5 days; cells were then diluted, reseeded again and the 2nd cycle exposure was initiated the following day with fresh drug. […] The inhibitory effect was time-dependent, since in both HeLa and Saos-2 cultures, the 1st cycle of exposure (5 days) yielded a 1.6- and 1.5-fold reduction, respectively, whereas a 5- and 4-fold reduction was obtained in the 2nd cycle (carried out until day 20 from the onset of exposure).

In a further assay the test system is early mouse embryos. Description: Early mouse embryo cultures from in vitro fertilization (IVF) assays. The settings on record: added to cultures of IVF embryos; preliminary studies.
The subject of assay [9] is Saos-2 osteosarcoma cells. The experiment in a line: Cell proliferation by cell counting. It counts as cell-based, human. The settings on record: 20 μM efavirenz. The procedure: Samples were withdrawn at specific times and cells were counted in nevirapine-exposed and control (DMSO-exposed) cultures. […] Saos-2 osteosarcoma cells were the most slowly responsive type, and only after 5 days of exposure did the growth rate begin to decrease compared to control cultures.
as §3

In the next assay the test system is Morris 3924A hepatoma. The experiment in a line: Morris 3924A rat hepatoma in vivo. The settings on record: efavirenz 1 mg/rat/day from day of inoculation; two treated rats; controls died at 27th day. The procedure: Rat strain: ACI/T inbred (about 180 gr)
Tumor: Morris 3924A hepatoma is a fast-growing tumor which develops in inbred ACI/T animals. Three weeks after inoculation the tumor size is about 10 cm^3.
Preparation of tumor cells: hepatoma tumor cells are prepared from the animal about two weeks after inoculation. The tumor is surgically removed from the animal, separated from connective and necrotic tissues and minced in small pieces. Tumor fragments are then suspended in sterile physiological solution and inoculated in the internal site of one thigh using a 20 ml-syringe with a large size needle. Routinely 0.5 ml of cell suspension are injected. The success rate of tumor implantation is nearly 99%.
On the eleventh day, hepatoma cells were inoculated subcutaneously in pre-treated and in three non-treated control rats.
Procedures and Results: Morris hepatoma cells were inoculated in 4 rats ([…]). The same day, treatment with efavirenz was initiated in two of them by injecting 1 mg/rat/day.

The mark [10] stands for this setting: 2nd cycle (until day 20 from onset of exposure).

Turning to `CC1=C(/C=C/C(C)=C/C=C/C(C)=C/C(=O)O)C(C)(C)CCC1` [RA, retinoic acid], the “NBT+ (%)” value in the assay with HL60 cells [1] is 31.2 ± 1.4%; in the assay on NB4 cells [4] it was 80.6 ± 4.5%. The “CD11b mean fluorescence intensity” value was determined as 53.7 AU in the assay on NB4 cells [2] and 15.3 AU in the assay with HL60 cells [3]. Besides, the “CD14 mean fluorescence intensity” value in the assay on NB4 cells [2] is 19.1 AU; in the assay with HL60 cells [3], 23.7 AU. Also, the figures for the “CD15 mean fluorescence intensity” value with NB4 cells [2] and in the assay on HL60 cells [3] were 421.7 AU and 609.7 AU, respectively. Further, the “Viable cells N^0 × 10^5” value with NB4 cells [5] is on record as 1.4 ± 0.1 × 10^5; in the assay with HL60 cells [6] it was 6.5 ± 0.9 × 10^5.
Turning to `O=C1Nc2ccc(Cl)cc2[C@@](C#CC2CC2)(C(F)(F)F)O1` [efavirenz, (−)-6-chloro-4-cyclopropylethynyl-4-trifluoromethyl-1,4,-dihydro-2H-3,1-benzoxazine-one], the rate of proliferation entry (with F9 teratocarcinoma cells; in [7]) was “decreases the rate of proliferation” throughout. The “reduction in the rate of cell growth” value in assay [8] (1st cycle of exposure (5 days)) came to 1.6 fold; in assay [8] (setting [10]) it was 5 fold; in [9] (1st cycle of exposure (5 days)), 1.5 fold; in assay [9] (setting [10]), 4 fold. The “development of early mouse embryos” value in the assay on early mouse embryos is “early and effective developmental arrest”. Also, in the assay on Morris 3924A hepatoma, the “tumor development in treated rats” value is “only one of two treated animals developed a tumor of markedly smaller size, whereas the other remained totally healthy”.
